The values below come from patent US7495027B2, “3-aryl-4-hydroxyfuranone compounds and the human and animal health use thereof” (Wyeth, priority 2003, dated 2009).

The subject of the first series is larvae of blowfly, Lucilia sericata. The series can be described thus: whole plant or invertebrate. The note with it: dose rate of 20 ppm; Lucilia sericata larvae on treated filter paper with bovine serum; assessed at 24 h. As for the experimental part:
Comparative Evaluation of the Efficacy of a 3-Aryl-4-hydroxyfuranone Compound Against Blowfly Larvae
In this evaluation, filter paper discs are treated with an acetone solution of test compound and allowed to dry. Bovine serum and newly emerged larvae of blowfly, Lucilia sericata, are added to the treated filter paper. Mortality is assessed at 24 h and 48 h. When more than one evaluation is performed, the data are averaged.
With `N#Cc1ccc(C=C2OC(=O)C(c3ccc(-c4ccc(Cl)cc4)cc3)=C2O)cc1` (mixture of isomers), the “% Mortality 24 h” value was 0%. As to `O=C1OC(=Cc2ccc(Cl)cc2)C(O)=C1c1ccc(-c2ccc(Cl)cc2)cc1` (mixture of isomers), the “% Mortality 24 h” value was 0%.

On to `COC1=C(c2ccc(Cl)cc2)C(=O)OC1=Cc1ccc(C#N)cc1` (mixture of isomers) [R=CH3, R1=4-Cl—C6H4**, R2=4-CN—C6H4], for which the “% Mortality 24 h” value was 0%. On to `O=C1OC(=Cc2ccc(C(F)(F)F)cc2)C(O)=C1c1cccc(C(F)(F)F)c1` (mixture of isomers) [R=H, R1=3-CF3—C6H4**, R2=4-CF3—C6H4], for which the “% Mortality 24 h” value is on record as 100%. `N#Cc1ccc(C=C2OC(=O)C(c3cccc(C(F)(F)F)c3)=C2O)cc1` (mixture of isomers) [R=H, R1=3-CF3—C6H4**, R2=4-CN—C6H4]: the “% Mortality 24 h” value is on record as 20%. On to `O=C1OC(=Cc2ccc(F)cc2)C(O)=C1c1cccc(C(F)(F)F)c1` (mixture of isomers) [R=H, R1=3-CF3—C6H4**, R2=4-F—C6H4], for which the “% Mortality 24 h” value came to 100%. In the case of `N#Cc1cccc(C2=C(O)C(=Cc3ccc(C(F)(F)F)cc3)OC2=O)c1` (mixture of isomers) [R=H, R1=3-CN—C6H4**, R2=4-CF3—C6H4], the “% Mortality 24 h” value is given as 0%. As to `N#Cc1ccc(C=C2OC(=O)C(c3cccc(C#N)c3)=C2O)cc1` (mixture of isomers) [R=H, R1=3-CN—C6H4**, R2=4-CN—C6H4], the “% Mortality 24 h” value was 0%. As for `N#Cc1cccc(C2=C(O)C(=Cc3ccc(Cl)cc3)OC2=O)c1` (mixture of isomers) [R=H, R1=3-CN—C6H4**, R2=4-Cl—C6H4], the “% Mortality 24 h” value is listed as 0%. As to `N#Cc1cccc(C2=C(O)C(=Cc3ccc(F)cc3)OC2=O)c1` (mixture of isomers) [R=H, R1=3-CN—C6H4**, R2=4-F—C6H4], the “% Mortality 24 h” value was found to be 0%.

As to `O=C1OC(=Cc2ccc(C(F)(F)F)cc2)C(O)=C1c1cccc(Cl)c1` (mixture of isomers) [R=H, R1=3-Cl—C6H4**, R2=4-CF3—C6H4], the “% Mortality 24 h” value amounted to 60%. As to `N#Cc1ccc(C=C2OC(=O)C(c3cccc(Cl)c3)=C2O)cc1` (mixture of isomers) [R=H, R1=3-Cl—C6H4**, R2=4-CN—C6H4], the “% Mortality 24 h” value is on record as 0%. For `O=C1OC(=Cc2ccc(Cl)cc2)C(O)=C1c1cccc(Cl)c1` (mixture of isomers) [R=H, R1=3-Cl—C6H4**, R2=4-Cl—C6H4], the “% Mortality 24 h” value is 0%. For the molecule `O=C1OC(=Cc2ccc(F)cc2)C(O)=C1c1cccc(Cl)c1` (mixture of isomers) [R=H, R1=3-Cl—C6H4**, R2=4-F—C6H4], the “% Mortality 24 h” value is 0%.

Turning to `O=C1OC(=Cc2ccc(C(F)(F)F)cc2)C(O)=C1c1ccc(C(F)(F)F)cc1` (mixture of isomers) [R=H, R1=4-CF3—C6H4**, R2=4-CF3—C6H4], the “% Mortality 24 h” value was 100%.

Regarding `N#Cc1ccc(C=C2OC(=O)C(c3ccc(C(F)(F)F)cc3)=C2O)cc1` (mixture of isomers) [R=H, R1=4-CF3—C6H4**, R2=4-CN—C6H4], the “% Mortality 24 h” value was found to be 100%. Still for that read-out and setting: the result for `O=C1OC(=Cc2ccc(Cl)cc2)C(O)=C1c1ccc(C(F)(F)F)cc1` (mixture of isomers) [R=H, R1=4-CF3—C6H4**, R2=4-Cl—C6H4] reads 100%. Turning to `O=C1OC(=Cc2ccc(F)cc2)C(O)=C1c1ccc(C(F)(F)F)cc1` (mixture of isomers) [R=H, R1=4-CF3—C6H4**, R2=4-F—C6H4], the “% Mortality 24 h” value was 100%. Consider `N#Cc1ccc(C2=C(O)C(=Cc3cccc(C(F)(F)F)c3)OC2=O)cc1` (mixture of isomers) [R=H, R1=4-CN—C6H4**, R2=3-CF3—C6H4], for which the “% Mortality 24 h” value came out at 0%. The same measure, in the same setting: the result for `N#Cc1ccc(C2=C(O)C(=Cc3ccc(C(F)(F)F)cc3)OC2=O)cc1` (mixture of isomers) [R=H, R1=4-CN—C6H4**, R2=4-CF3—C6H4] reads 100%. Regarding `N#Cc1ccc(C=C2OC(=O)C(c3ccc(C#N)cc3)=C2O)cc1` (mixture of isomers) [R=H, R1=4-CN—C6H4**, R2=4-CN—C6H4], the “% Mortality 24 h” value is listed as 40%.

Staying with this series, now noted: dose rate of 20 ppm; Lucilia sericata larvae on treated filter paper with bovine serum; assessed at 48 h.
Consider `N#Cc1ccc(C=C2OC(=O)C(c3ccc(-c4ccc(Cl)cc4)cc3)=C2O)cc1` (mixture of isomers), for which the “% Mortality 48 h” value is given as 0%. Take `O=C1OC(=Cc2ccc(Cl)cc2)C(O)=C1c1ccc(-c2ccc(Cl)cc2)cc1` (mixture of isomers): the “% Mortality 48 h” value turned out to be 0%. For the molecule `COC1=C(c2ccc(Cl)cc2)C(=O)OC1=Cc1ccc(C#N)cc1` (mixture of isomers) [R=CH3, R1=4-Cl—C6H4**, R2=4-CN—C6H4], the “% Mortality 48 h” value was found to be 0%.

Turning to `O=C1OC(=Cc2ccc(C(F)(F)F)cc2)C(O)=C1c1cccc(C(F)(F)F)c1` (mixture of isomers) [R=H, R1=3-CF3—C6H4**, R2=4-CF3—C6H4], the “% Mortality 48 h” value was 100%. Regarding `N#Cc1ccc(C=C2OC(=O)C(c3cccc(C(F)(F)F)c3)=C2O)cc1` (mixture of isomers) [R=H, R1=3-CF3—C6H4**, R2=4-CN—C6H4], the “% Mortality 48 h” value came to 20%. On the same count and under the same terms, the result for `O=C1OC(=Cc2ccc(F)cc2)C(O)=C1c1cccc(C(F)(F)F)c1` (mixture of isomers) [R=H, R1=3-CF3—C6H4**, R2=4-F—C6H4] reads 100%; that for `N#Cc1cccc(C2=C(O)C(=Cc3ccc(C(F)(F)F)cc3)OC2=O)c1` (mixture of isomers) [R=H, R1=3-CN—C6H4**, R2=4-CF3—C6H4], 0%; that for `N#Cc1ccc(C=C2OC(=O)C(c3cccc(C#N)c3)=C2O)cc1` (mixture of isomers) [R=H, R1=3-CN—C6H4**, R2=4-CN—C6H4], 0%.

For `N#Cc1cccc(C2=C(O)C(=Cc3ccc(Cl)cc3)OC2=O)c1` (mixture of isomers) [R=H, R1=3-CN—C6H4**, R2=4-Cl—C6H4], the “% Mortality 48 h” value is reported as 0%.

With `N#Cc1cccc(C2=C(O)C(=Cc3ccc(F)cc3)OC2=O)c1` (mixture of isomers) [R=H, R1=3-CN—C6H4**, R2=4-F—C6H4], the “% Mortality 48 h” value came to 0%.

In the case of `O=C1OC(=Cc2ccc(C(F)(F)F)cc2)C(O)=C1c1cccc(Cl)c1` (mixture of isomers) [R=H, R1=3-Cl—C6H4**, R2=4-CF3—C6H4], the “% Mortality 48 h” value is recorded as 75%.

Turning to `N#Cc1ccc(C=C2OC(=O)C(c3cccc(Cl)c3)=C2O)cc1` (mixture of isomers) [R=H, R1=3-Cl—C6H4**, R2=4-CN—C6H4], the “% Mortality 48 h” value stood at 0%. In the case of `O=C1OC(=Cc2ccc(Cl)cc2)C(O)=C1c1cccc(Cl)c1` (mixture of isomers) [R=H, R1=3-Cl—C6H4**, R2=4-Cl—C6H4], the “% Mortality 48 h” value came to 0%. As to `O=C1OC(=Cc2ccc(F)cc2)C(O)=C1c1cccc(Cl)c1` (mixture of isomers) [R=H, R1=3-Cl—C6H4**, R2=4-F—C6H4], the “% Mortality 48 h” value was 0%.

Turning to `O=C1OC(=Cc2ccc(C(F)(F)F)cc2)C(O)=C1c1ccc(C(F)(F)F)cc1` (mixture of isomers) [R=H, R1=4-CF3—C6H4**, R2=4-CF3—C6H4], the “% Mortality 48 h” value is recorded as 100%. Same read-out and setting: the same measure for `N#Cc1ccc(C=C2OC(=O)C(c3ccc(C(F)(F)F)cc3)=C2O)cc1` (mixture of isomers) [R=H, R1=4-CF3—C6H4**, R2=4-CN—C6H4]: 100%; for `O=C1OC(=Cc2ccc(Cl)cc2)C(O)=C1c1ccc(C(F)(F)F)cc1` (mixture of isomers) [R=H, R1=4-CF3—C6H4**, R2=4-Cl—C6H4]: 100%. For `O=C1OC(=Cc2ccc(F)cc2)C(O)=C1c1ccc(C(F)(F)F)cc1` (mixture of isomers) [R=H, R1=4-CF3—C6H4**, R2=4-F—C6H4], the “% Mortality 48 h” value is 100%. Regarding `N#Cc1ccc(C2=C(O)C(=Cc3cccc(C(F)(F)F)c3)OC2=O)cc1` (mixture of isomers) [R=H, R1=4-CN—C6H4**, R2=3-CF3—C6H4], the “% Mortality 48 h” value is on record as 90%. In the case of `N#Cc1ccc(C2=C(O)C(=Cc3ccc(C(F)(F)F)cc3)OC2=O)cc1` (mixture of isomers) [R=H, R1=4-CN—C6H4**, R2=4-CF3—C6H4], the “% Mortality 48 h” value was found to be 100%.

Turning to `N#Cc1ccc(C=C2OC(=O)C(c3ccc(C#N)cc3)=C2O)cc1` (mixture of isomers) [R=H, R1=4-CN—C6H4**, R2=4-CN—C6H4], the “% Mortality 48 h” value is 100%.

The next series relates to C. elegans. The series can be described thus: Efficacy against nematodes (C. elegans motility rating). Details: key: 0: no effect; 7: reduced movement in 24 h; 8: dead in 24 h; 9: dead in 4 h. The conditions noted are these: dose 100 ppm, observations at 4 h and 24 h postimmersion. A digest of the protocol: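 Mixed-stage C. elegans (~50 per well, L1 to adult) in M9 buffer exposed to test compound at 100 ppm, 150 ppm or 200 μM final. Motility of larvae and adults scored under dissecting microscope at 4 h and 24 h.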
As for `O=C1O/C(=C\c2ccc(Cl)cc2)C(O)=C1c1cccs1` [R=H; R1=thiophen-2-yl; R2=4-Cl—C6H4], the Rating is recorded as 7.
